These results are taken from patent US20150057246A1, “SILYL-CONTAINING HETEROCYCLIC COMPOUNDS AND METHODS OF USE THEREOF FOR THE TREATMENT OF VIRAL DISEASES” (priority 2012, published 2015).

Experiment [1] deals with HCV 1a replicon. In words: Cell-based HCV replicon assay (TaqMan), genotype 1a replicon. To be noted: HCV genotype 1a replicon cells, replicon RNA by real time PCR, day 3, EC90 = concentration for ΔCT=3.2 over baseline. The method, then:
(§1) Measurement of inhibition by compounds of the present invention was performed using the HCV replicon system. Several different replicons encoding different HCV genotypes or mutations were used. In addition, potency measurements were made using different formats of the replicon assay, including different ways of measurements and different plating formats. See Jan M. Vrolijk et al., A replicons-based bioassay for the measurement of interferons in patients with chronic hepatitis C, 110 J. VIROLOGICAL METHODS 201 (2003); Steven S. Carroll et al., Inhibition of Hepatitis C Virus RNA Replication by 2′-Modified Nucleoside Analogs, 278(14) J. BIOLOGICAL CHEMISTRY 11979 (2003). However, the underlying principles are common to all of these determinations, and are outlined below.
(§2) TaqMan®-Based Assay Protocol:
(§3) Compounds of the present invention were assayed for cell-based anti-HCV activity using the following protocol. Replicon cells were seeded at 5000 cells/well in 96-well collagen I-coated Nunc plates in the presence of the test compound. Various concentrations of test compound, typically in 10 serial 2-fold dilutions, were added to the assay mixture, with the starting concentration ranging from 250 μM to 1 μM. The final concentration of DMSO was 0.5%, fetal bovine serum was 5%, in the assay media. Cells were harvested on day 3 by the addition of 1× cell lysis buffer (Ambion cat #8721). The replicon RNA level was measured using real time PCR (TaqMan® assay). The amplicon was located in 5B. The PCR primers were: 5B.2F, ATGGACAGGCGCCCTGA (SEQ. ID NO. 1); 5B.2R, […] (SEQ. ID NO. 2); the probe sequence was FAM-labeled CACGCCATGCGCTGCGG (SEQ. ID NO. 3). GAPDH RNA was used as endogenous control and was amplified in the same reaction as NS5B (multiplex PCR) using primers and VIC-labeled probe recommended by the manufacturer (PE Applied Biosystem). The real-time […] reactions were run on ABI PRISM 7900HT Sequence Detection System using the following program: 48° C. for 30 minutes, 95° C. for 10 minutes, 40 cycles of 95° C. for 15 sec, 60° C. for 1 minute. The ΔCT values (CT5B-CTGAPDH) were plotted against the concentration of test compound and fitted to the sigmoid dose-response model using XLfit4 (MDL). EC50 was defined as the concentration of inhibitor necessary to achieve ΔCT=1 over the projected baseline; EC90 the concentration necessary to achieve ΔCT=3.2 over the baseline. Alternatively, to quantitate the absolute amount of replicon RNA, a standard curve was established by including serially diluted T7 transcripts of replicon RNA in the Taqman assay. All TaqMan® reagents were from PE Applied Biosystems. Such an assay procedure was described in detail in e.g. Malcolm et al., Antimicrobial Agents and Chemotherapy 50: 1013-1020 (2006).
(§4) HCV replicon EC50 assay data for various replicons and mutants was calculated for selected compounds of the present invention using this method and is provided in the tables above herein.
In general terms: In antiviral work, replicon cells carry a viral genome segment that copies itself.

Experiment [2] concerns HCV 1a Y93H replicon. In words: Cell-based HCV replicon assay (TaqMan), 1a Y93H mutant replicon. To be noted: EC90 = concentration for ΔCT=3.2 over baseline. The method, then:
as §1, §2, §3, §4

The test system of experiment [3] is HCV 2b replicon. In words: Cell-based HCV replicon assay (TaqMan), genotype 2b replicon. To be noted: EC90 = concentration for ΔCT=3.2 over baseline. The method, then:
as §1, §2, §3, §4

The mark [4] stands for this setting: Hepatitis C virus, 72 h, read-out: 1a Y93H EC90, HCV 1a Y93H mutant replicon cells, replicon RNA by real time PCR, day 3.
The mark [5] stands for this setting: Hepatitis C virus, 72 h, read-out: 2b EC90, HCV genotype 2b replicon cells, replicon RNA by real time PCR, day 3.
Where [6] appears, read: read-out: 2b EC90, HCV genotype 2b replicon cells, replicon RNA by real time PCR, day 3.

Read-outs that look alike come from different tables or passages of the source. A value given as a limit tells only on which side of the number the result lay.

Turning to `COC(=O)N[C@H](C(=O)N1CCC[C@H]1c1ncc(-c2ccc(-c3ccc4c(ccc5nc([C@@H]6C[Si](C)(C)CN6C(=O)[C@@H](NC(=O)OC)C(C)OC)[nH]c54)c3)cc2)[nH]1)C(C)OC` (some centres unmarked) [Compound 19], the EC90 in experiment [1] (Hepatitis C virus, 72 h) was 0.036 nM; in experiment [2] (setting [4]), above 100 nM; in experiment [3] (setting [5]), above 100 nM.
As for `CCC(C)[C@H](NC(=O)OC)C(=O)N1CCC[C@H]1c1ncc(-c2ccc(-c3ccc4c(ccc5nc([C@@H]6C[Si](C)(C)CN6C(=O)[C@@H](NC(=O)OC)C(C)CC)[nH]c54)c3)cc2)[nH]1` (some centres unmarked) [Compound 20], the EC90 was 0.063 nM in experiment [1] (Hepatitis C virus, 72 h); above 100 nM in experiment [2] (setting [4]); above 100 nM in experiment [3] (setting [5]).
As to `CCN(CC)[C@@H](C(=O)N1CCC[C@H]1c1ncc(-c2ccc(-c3ccc4c(ccc5nc([C@@H]6C[Si](C)(C)CN6C(=O)[C@@H](c6ccccc6)N(CC)CC)[nH]c54)c3)cc2)[nH]1)c1ccccc1` [Compound 21], the EC90 is 0.25 nM in experiment [1] (Hepatitis C virus, 72 h); above 100 nM in experiment [2] (setting [4]); 0.39 nM in experiment [3] (setting [5]).
As to `COC(=O)N[C@H](C(=O)N1C[Si](C)(C)C[C@H]1c1ncc(-c2ccc(-c3ccc4c(ccc5nc([C@@H]6CCCN6C(=O)[C@@H](NC(=O)OC)C6CCCC6)[nH]c54)c3)cc2)[nH]1)C1CCCC1` [Compound 35], the EC90 was 0.5 nM in experiment [1] (Hepatitis C virus, 72 h); 555 nM in experiment [2] (setting [4]); 566 nM in experiment [3] (setting [5]).
Take `COC(=O)N[C@H](C(=O)N1C[Si](C)(C)C[C@H]1c1ncc(-c2ccc(-c3ccc4c(ccc5nc([C@@H]6CCCN6C(=O)[C@@H](NC(=O)OC)[C@@H](C)OC)[nH]c54)c3)cc2)[nH]1)[C@@H](C)OC` [Compound 36]: the EC90 in experiment [1] (Hepatitis C virus, 72 h) was 0.152 nM; in experiment [2] (setting [4]), 276 nM; in experiment [3] (setting [5]), above 1000 nM.
For `COC(=O)N[C@@H](Cc1cccc(O)c1)C(=O)N1C[Si](C)(C)C[C@H]1c1ncc(-c2ccc(-c3ccc4c(ccc5nc([C@@H]6CCCN6C(=O)[C@H](Cc6cccc(O)c6)NC(=O)OC)[nH]c54)c3)cc2)[nH]1` [Compound 37], in that order: 2.52 nM, above 1000 nM and above 1000 nM.
On the same counts, the results for `COC(=O)N[C@@H](Cn1ncnn1)C(=O)N1C[Si](C)(C)C[C@H]1c1ncc(-c2ccc(-c3ccc4c(ccc5nc([C@@H]6CCCN6C(=O)[C@H](Cn6ncnn6)NC(=O)OC)[nH]c54)c3)cc2)[nH]1` [Compound 38] are 2.57 nM, above 1000 nM and 408 nM.
For `COC(=O)N1CCOC[C@H]1C(=O)N1C[Si](C)(C)C[C@H]1c1ncc(-c2ccc(-c3ccc4c(ccc5nc([C@@H]6CCCN6C(=O)[C@@H]6COCCN6C(=O)OC)[nH]c54)c3)cc2)[nH]1` [Compound 39], in that order: 149 nM, above 1000 nM and above 1000 nM.
In the case of `COC(=O)N[C@@H](Cc1cn(C)cn1)C(=O)N1C[Si](C)(C)C[C@H]1c1ncc(-c2ccc(-c3ccc4c(ccc5nc([C@@H]6CCCN6C(=O)[C@H](Cc6cn(C)cn6)NC(=O)OC)[nH]c54)c3)cc2)[nH]1` [Compound 40], the EC90 in experiment [1] (Hepatitis C virus, 72 h) is 2.57 nM; in experiment [2] (setting [4]), above 1000 nM; in experiment [3] (setting [5]), above 1000 nM.
As to `CC[C@H](C)[C@H](NC(=O)OC)C(=O)N1C[Si](C)(C)C[C@H]1c1ncc(-c2ccc(-c3ccc4c(ccc5nc([C@@H]6CCCN6C(=O)[C@@H](NC(=O)OC)[C@@H](C)CC)[nH]c54)c3)cc2)[nH]1` [Compound 41], the EC90 is 0.19 nM in experiment [1], 614 nM in experiment [2] (setting [4]) and 271 nM in experiment [3] (setting [6]).
For the molecule `CC[C@H](NC(=O)OC)C(=O)N1C[Si](C)(C)C[C@H]1c1ncc(-c2ccc(-c3ccc4c(ccc5nc([C@@H]6CCCN6C(=O)[C@H](CC)NC(=O)OC)[nH]c54)c3)cc2)[nH]1` [Compound 44], the EC90 in experiment [1] (Hepatitis C virus, 72 h) is 0.3 nM; in experiment [2] (setting [4]), 302 nM; in experiment [3] (setting [5]) it was 171 nM.
As to `COC(=O)N[C@@H](CCSC)C(=O)N1C[Si](C)(C)C[C@H]1c1ncc(-c2ccc(-c3ccc4c(ccc5nc([C@@H]6CCCN6C(=O)[C@H](CCSC)NC(=O)OC)[nH]c54)c3)cc2)[nH]1` [Compound 45], the EC90 is 0.85 nM in experiment [1] (Hepatitis C virus, 72 h); above 1000 nM in experiment [2] (setting [4]); 563 nM in experiment [3] (setting [5]).
Take `COC(=O)N[C@@H](Cc1ccccc1)C(=O)N1C[Si](C)(C)C[C@H]1c1ncc(-c2ccc(-c3ccc4c(ccc5nc([C@@H]6CCCN6C(=O)[C@H](Cc6ccccc6)NC(=O)OC)[nH]c54)c3)cc2)[nH]1` [Compound 46]: the EC90 is 4.75 nM in experiment [1] (Hepatitis C virus, 72 h); above 1000 nM in experiment [2] (setting [4]); above 1000 nM in experiment [3] (setting [5]).
For `CC[C@H](C)[C@H](NC(=O)OC)C(=O)N1C[Si](C)(C)C[C@H]1c1ncc(-c2ccc(-c3ccc4c(ccc5nc([C@@H]6CCCN6C(=O)[C@@H](NC(=O)OC)[C@@H](C)CC)[nH]c54)c3)cc2)[nH]1` [Compound 47], the EC90 in experiment [1] stood at 0.59 nM; in experiment [2] (read-out: 1a Y93H EC90, HCV 1a Y93H mutant replicon cells, replicon RNA by real time PCR, day 3) it was 953 nM; in experiment [3] (setting [6]), 578 nM.
Turning to `CCCC(NC(=O)OC)C(=O)N1C[Si](C)(C)C[C@H]1c1ncc(-c2ccc(-c3ccc4c(ccc5nc([C@@H]6CCCN6C(=O)[C@H](CCC)NC(=O)OC)[nH]c54)c3)cc2)[nH]1` (some centres unmarked) [Compound 48], the EC90 in experiment [1] (Hepatitis C virus, 72 h) came out at 0.64 nM; in experiment [2] (setting [4]) it was 761 nM; in experiment [3] (setting [5]), 882 nM.
In the case of `COC(=O)N[C@H](C)C(=O)N1C[Si](C)(C)C[C@H]1c1ncc(-c2ccc(-c3ccc4c(ccc5nc([C@@H]6CCCN6C(=O)[C@@H](C)NC(=O)OC)[nH]c54)c3)cc2)[nH]1` [Compound 49], the EC90 was 386 nM in experiment [1] (Hepatitis C virus, 72 h); above 1000 nM in experiment [2] (setting [4]); above 1000 nM in experiment [3] (setting [5]).
Turning to `COC(=O)N[C@@H](C(=O)N1C[Si](C)(C)C[C@H]1c1ncc(-c2ccc(-c3ccc4c(ccc5nc([C@@H]6CCCN6C(=O)[C@H](NC(=O)OC)C6CC6)[nH]c54)c3)cc2)[nH]1)C1CC1` [Compound 50], the EC90 is above 1000 nM in experiment [1] (Hepatitis C virus, 72 h); above 1000 nM in experiment [2] (setting [4]); above 1000 nM in experiment [3] (setting [5]).
As to `COC(=O)N[C@H](C(=O)N1C[Si](C)(C)C[C@H]1c1ncc(-c2ccc(-c3ccc4c(ccc5nc([C@@H]6CCCN6C(=O)[C@@H](NC(=O)OC)C6CC6)[nH]c54)c3)cc2)[nH]1)C1CC1` [Compound 51], the EC90 was 0.51 nM in experiment [1] (Hepatitis C virus, 72 h); above 1000 nM in experiment [2] (setting [4]); above 1000 nM in experiment [3] (setting [5]).
As to `CC(C)(C)OC(=O)N1C[Si](C)(C)C[C@H]1c1nc2ccc3cc(-c4ccc(-c5cnc([C@@H]6C[C@H]7C[C@H]7N6C(=O)OC(C)(C)C)[nH]5)cc4)ccc3c2[nH]1` [Compound 97], the EC90 in experiment [1] was above 1 nM; in experiment [2] (setting [4]) it was above 1000 nM.
On to `COC(=O)N[C@H](C(=O)N1C[Si](C)(C)C[C@H]1c1nc2ccc3cc(-c4ccc(-c5[nH]c([C@@H]6C[C@H]7C[C@H]7N6C(=O)[C@@H](NC(=O)OC)C(C)C)nc5Cl)cc4)ccc3c2[nH]1)C(C)C` [Compound 102], for which the EC90 came out at 0.048 nM in experiment [1] (Hepatitis C virus, 72 h) and 140 nM in experiment [2] (setting [4]).
Turning to `CC(C)(C)OC(=O)N1C[Si](C)(C)C[C@H]1c1nc2ccc3cc(-c4ccc(-c5nc(Cl)c([C@@H]6C[C@H]7C[C@H]7N6C(=O)OC(C)(C)C)[nH]5)cc4)ccc3c2[nH]1` [Compound 109], the EC90 in experiment [1] (Hepatitis C virus, 72 h) was above 1 nM; in experiment [2] (setting [4]), above 100 nM.
Regarding `CC(C)(C)OC(=O)N1CCC[C@H]1c1ncc(-c2ccc3cc(-c4ccc5c(ccc6nc([C@@H]7C[Si](C)(C)CN7C(=O)OC(C)(C)C)[nH]c65)c4)ccc3c2)[nH]1` [Compound 110], the EC90 is above 1000 nM in experiment [1] (Hepatitis C virus, 72 h) and above 1000 nM in experiment [2] (setting [4]).

The EC90 is the concentration needed for an effect of 90%.
